Test results as given in the kinase profiling compilation of Christmann-Franck et al. (2016).

Experiments:
Experiment in all cases: radiometric filter-binding kinase assay, Kinase HotSpot
Conditions in all cases: compound 0.5 µM; ATP 10 µM
[1] = target: MAP4K2 (human) (UniProt Q12851)
[2] = target: RPS6KA2 KD1 KD2 (human) (UniProt Q15349)
[3] = target: PRKCA (human) (UniProt P17252)
[4] = target: MAPK3 (human) (UniProt P27361)
[5] = target: MAPK1 (human) (UniProt P28482)
[6] = target: EPHB4 (human) (UniProt P54760)
[7] = target: TXK (human) (UniProt P42681)
[8] = target: FRK (human) (UniProt P42685)
[9] = target: PBK (human) (UniProt Q96KB5)
[10] = target: PAK6 (human) (UniProt Q9NQU5)
[11] = target: TGFBR2 (human) (UniProt P37173)
[12] = target: PNCK (human) (UniProt Q6P2M8)
[13] = target: MINK1 (human) (UniProt Q8N4C8)
[14] = target: EPHB3 (human) (UniProt P54753)
[15] = target: PRKCI (human) (UniProt P41743)
[16] = target: MAPK8 (human) (UniProt P45983)
[17] = target: MLTK (human) (UniProt Q9NYL2)
[18] = target: PLK1 (human) (UniProt P53350)
[19] = target: MAP3K9 (human) (UniProt P80192)
[20] = target: PDGFRB (human) (UniProt P09619)
[21] = target: AKT1 (human) (UniProt P31749)
[22] = target: RET (human) (UniProt P07949)
[23] = target: MAP3K10 (human) (UniProt Q02779)
[24] = target: FGFR3 (human) (UniProt P22607)
[25] = target: SYK (human) (UniProt P43405)
[26] = target: HIPK2 (human) (UniProt Q9H2X6)
[27] = target: FES (human) (UniProt P07332)
[28] = target: AKT2 (human) (UniProt P31751)
[29] = target: IKBKE (human) (UniProt Q14164)
[30] = target: TSSK2 (human) (UniProt Q96PF2)
[31] = target: PAK7 (human) (UniProt Q9P286)
[32] = target: EPHA7 (human) (UniProt Q15375)
[33] = target: CHEK1 (human) (UniProt O14757)
[34] = target: EPHA3 (human) (UniProt P29320)
[35] = target: ULK2 (human) (UniProt Q8IYT8)
[36] = target: CSNK1G2 (human) (UniProt P78368)
[37] = target: PIM2 (human) (UniProt Q9P1W9)
[38] = target: HIPK1 (human) (UniProt Q86Z02)
[39] = target: PIM1 (human) (UniProt P11309)
[40] = target: FLT1 (human) (UniProt P17948)
[41] = target: MAPK9 (human) (UniProt P45984)
[42] = target: MAP3K5 (human) (UniProt Q99683)

Chain of PIM1 (human) (P11309 whole entry, looked up): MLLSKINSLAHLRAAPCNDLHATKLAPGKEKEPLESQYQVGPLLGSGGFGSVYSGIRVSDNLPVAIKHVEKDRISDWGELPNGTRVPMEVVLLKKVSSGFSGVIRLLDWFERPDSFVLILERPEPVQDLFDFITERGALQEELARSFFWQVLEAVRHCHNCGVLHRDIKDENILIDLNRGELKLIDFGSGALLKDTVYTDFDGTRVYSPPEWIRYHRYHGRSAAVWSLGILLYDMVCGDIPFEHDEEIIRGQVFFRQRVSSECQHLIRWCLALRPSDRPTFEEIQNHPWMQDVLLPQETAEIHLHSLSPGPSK
Chain of MAPK9 (human) (P45984 whole entry, looked up): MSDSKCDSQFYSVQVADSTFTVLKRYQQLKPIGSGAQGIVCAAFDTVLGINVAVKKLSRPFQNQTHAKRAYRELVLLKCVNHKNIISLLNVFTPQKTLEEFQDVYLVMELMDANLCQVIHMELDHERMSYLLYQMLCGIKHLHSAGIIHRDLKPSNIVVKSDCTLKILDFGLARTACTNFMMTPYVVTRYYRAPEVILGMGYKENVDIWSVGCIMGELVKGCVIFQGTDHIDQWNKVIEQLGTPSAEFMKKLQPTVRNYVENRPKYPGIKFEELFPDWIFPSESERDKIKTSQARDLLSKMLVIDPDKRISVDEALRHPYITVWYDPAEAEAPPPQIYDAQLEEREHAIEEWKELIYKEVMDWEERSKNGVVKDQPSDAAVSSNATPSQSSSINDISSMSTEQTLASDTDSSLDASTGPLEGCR
Chain of MLTK (human) (Q9NYL2 whole entry, looked up): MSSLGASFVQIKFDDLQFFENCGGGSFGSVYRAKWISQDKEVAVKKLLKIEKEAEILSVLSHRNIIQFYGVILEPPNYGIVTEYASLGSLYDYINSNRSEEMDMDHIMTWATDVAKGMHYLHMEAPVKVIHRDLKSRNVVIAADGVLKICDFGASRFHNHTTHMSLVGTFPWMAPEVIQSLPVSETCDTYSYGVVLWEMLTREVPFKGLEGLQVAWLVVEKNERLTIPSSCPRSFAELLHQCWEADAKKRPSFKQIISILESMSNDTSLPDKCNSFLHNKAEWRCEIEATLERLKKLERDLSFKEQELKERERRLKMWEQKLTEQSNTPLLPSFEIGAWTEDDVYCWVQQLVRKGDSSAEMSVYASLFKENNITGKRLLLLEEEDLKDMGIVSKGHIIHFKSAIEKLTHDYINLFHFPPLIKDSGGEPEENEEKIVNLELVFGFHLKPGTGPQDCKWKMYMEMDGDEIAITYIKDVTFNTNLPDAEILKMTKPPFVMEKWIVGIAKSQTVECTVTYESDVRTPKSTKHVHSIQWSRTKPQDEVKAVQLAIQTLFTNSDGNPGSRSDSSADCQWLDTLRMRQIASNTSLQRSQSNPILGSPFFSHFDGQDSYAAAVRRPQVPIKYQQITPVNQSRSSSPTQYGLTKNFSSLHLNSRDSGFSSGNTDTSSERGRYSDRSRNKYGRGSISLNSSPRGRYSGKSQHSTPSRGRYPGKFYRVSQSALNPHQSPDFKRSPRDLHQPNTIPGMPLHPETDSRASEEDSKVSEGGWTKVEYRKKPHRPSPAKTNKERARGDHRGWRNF
Chain of FLT1 (human) (P17948 whole entry, looked up): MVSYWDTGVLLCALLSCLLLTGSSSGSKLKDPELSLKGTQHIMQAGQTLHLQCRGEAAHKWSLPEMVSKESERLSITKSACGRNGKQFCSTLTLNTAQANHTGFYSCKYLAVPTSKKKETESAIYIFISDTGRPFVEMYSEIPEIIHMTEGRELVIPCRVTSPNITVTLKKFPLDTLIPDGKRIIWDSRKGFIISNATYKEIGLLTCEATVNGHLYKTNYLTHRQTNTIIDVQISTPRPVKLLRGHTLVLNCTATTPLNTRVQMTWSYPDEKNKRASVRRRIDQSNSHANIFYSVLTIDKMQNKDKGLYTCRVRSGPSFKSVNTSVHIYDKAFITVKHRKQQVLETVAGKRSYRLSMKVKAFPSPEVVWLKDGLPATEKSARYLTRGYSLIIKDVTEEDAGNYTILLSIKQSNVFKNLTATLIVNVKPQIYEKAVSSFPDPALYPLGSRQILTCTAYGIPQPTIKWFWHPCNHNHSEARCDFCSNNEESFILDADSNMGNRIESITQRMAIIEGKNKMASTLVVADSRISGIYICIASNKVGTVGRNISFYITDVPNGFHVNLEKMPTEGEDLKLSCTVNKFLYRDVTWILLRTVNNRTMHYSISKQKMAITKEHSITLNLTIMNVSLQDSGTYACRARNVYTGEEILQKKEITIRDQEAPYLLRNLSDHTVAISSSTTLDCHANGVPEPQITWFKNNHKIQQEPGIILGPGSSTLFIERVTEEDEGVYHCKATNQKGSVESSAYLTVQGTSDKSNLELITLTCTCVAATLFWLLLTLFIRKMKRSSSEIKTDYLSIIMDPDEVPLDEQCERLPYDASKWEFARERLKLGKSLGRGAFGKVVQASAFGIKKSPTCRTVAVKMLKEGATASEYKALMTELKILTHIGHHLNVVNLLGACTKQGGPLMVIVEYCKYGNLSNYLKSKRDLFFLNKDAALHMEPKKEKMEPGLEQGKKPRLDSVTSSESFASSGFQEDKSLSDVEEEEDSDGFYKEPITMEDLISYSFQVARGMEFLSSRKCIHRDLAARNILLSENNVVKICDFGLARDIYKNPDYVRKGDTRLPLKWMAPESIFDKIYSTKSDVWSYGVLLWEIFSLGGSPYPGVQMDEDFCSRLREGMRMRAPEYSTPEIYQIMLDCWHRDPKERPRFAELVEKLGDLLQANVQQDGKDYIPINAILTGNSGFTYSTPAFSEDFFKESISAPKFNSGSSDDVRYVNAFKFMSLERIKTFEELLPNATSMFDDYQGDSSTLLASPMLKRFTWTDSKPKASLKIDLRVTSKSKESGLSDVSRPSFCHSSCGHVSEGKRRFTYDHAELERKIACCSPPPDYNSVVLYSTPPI
Chain of MAPK8 (human) (P45983 whole entry, looked up): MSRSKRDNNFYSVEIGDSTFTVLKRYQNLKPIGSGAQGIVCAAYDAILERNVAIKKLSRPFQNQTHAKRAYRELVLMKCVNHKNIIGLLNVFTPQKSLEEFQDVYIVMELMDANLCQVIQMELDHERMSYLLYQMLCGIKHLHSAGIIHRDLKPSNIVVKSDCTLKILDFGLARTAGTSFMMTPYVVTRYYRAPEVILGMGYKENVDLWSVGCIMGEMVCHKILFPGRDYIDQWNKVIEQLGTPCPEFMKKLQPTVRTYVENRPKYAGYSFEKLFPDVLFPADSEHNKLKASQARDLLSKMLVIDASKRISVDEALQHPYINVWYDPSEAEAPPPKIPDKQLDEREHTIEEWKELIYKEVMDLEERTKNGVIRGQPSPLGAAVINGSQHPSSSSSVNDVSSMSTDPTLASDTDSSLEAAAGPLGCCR
Chain of FES (human) (P07332 whole entry, looked up): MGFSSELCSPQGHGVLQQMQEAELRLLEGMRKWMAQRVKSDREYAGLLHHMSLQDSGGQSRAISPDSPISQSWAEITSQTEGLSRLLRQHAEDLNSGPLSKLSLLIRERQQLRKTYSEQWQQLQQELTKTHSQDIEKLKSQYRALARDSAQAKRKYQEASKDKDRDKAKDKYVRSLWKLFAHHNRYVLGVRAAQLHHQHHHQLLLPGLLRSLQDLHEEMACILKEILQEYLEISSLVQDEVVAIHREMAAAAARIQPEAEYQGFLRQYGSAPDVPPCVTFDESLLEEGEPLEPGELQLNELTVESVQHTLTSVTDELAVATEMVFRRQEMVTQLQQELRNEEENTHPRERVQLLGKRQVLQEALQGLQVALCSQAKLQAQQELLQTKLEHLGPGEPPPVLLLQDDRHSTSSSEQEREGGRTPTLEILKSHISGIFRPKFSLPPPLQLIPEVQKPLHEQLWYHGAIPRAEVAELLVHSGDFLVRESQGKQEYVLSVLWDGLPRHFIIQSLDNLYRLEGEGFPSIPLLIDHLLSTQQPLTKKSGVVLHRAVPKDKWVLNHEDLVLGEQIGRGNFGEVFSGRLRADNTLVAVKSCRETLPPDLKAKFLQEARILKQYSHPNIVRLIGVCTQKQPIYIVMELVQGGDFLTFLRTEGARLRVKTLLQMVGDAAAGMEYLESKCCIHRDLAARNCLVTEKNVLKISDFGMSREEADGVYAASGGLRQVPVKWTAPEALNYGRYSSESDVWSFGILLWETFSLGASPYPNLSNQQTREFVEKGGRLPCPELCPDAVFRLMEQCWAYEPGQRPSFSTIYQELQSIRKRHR
Chain of TGFBR2 (human) (P37173 whole entry, looked up): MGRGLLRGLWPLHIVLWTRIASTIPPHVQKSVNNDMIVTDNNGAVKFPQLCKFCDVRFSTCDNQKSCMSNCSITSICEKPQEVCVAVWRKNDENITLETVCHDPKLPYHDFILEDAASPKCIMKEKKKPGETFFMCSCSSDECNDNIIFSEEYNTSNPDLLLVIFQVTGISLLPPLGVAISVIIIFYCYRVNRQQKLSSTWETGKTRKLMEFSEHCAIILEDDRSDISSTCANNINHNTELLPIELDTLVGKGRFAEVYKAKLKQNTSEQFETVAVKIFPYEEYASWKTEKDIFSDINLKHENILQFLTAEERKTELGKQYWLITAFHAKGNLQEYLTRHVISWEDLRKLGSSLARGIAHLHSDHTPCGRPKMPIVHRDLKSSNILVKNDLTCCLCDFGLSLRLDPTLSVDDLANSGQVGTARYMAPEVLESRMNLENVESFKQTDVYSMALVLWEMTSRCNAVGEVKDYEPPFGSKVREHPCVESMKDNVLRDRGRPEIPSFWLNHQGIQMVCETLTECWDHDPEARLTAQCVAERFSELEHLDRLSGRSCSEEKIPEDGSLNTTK
Chain of MAPK1 (human) (P28482 whole entry, looked up): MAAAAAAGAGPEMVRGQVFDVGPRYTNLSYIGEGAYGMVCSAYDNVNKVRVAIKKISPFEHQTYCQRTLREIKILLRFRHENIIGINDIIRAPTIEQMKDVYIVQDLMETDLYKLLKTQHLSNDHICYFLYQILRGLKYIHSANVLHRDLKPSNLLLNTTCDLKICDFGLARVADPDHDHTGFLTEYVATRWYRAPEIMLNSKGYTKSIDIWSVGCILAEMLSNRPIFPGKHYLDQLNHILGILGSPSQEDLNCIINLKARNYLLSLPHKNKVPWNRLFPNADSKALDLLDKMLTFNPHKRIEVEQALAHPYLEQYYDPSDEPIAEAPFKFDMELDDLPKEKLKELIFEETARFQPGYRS

## O=C1Nc2ccc(Br)cc2/C1=C\c1cc2c([nH]1)CCCC2
[1]
  residual activity: 58.1%
[2]
  residual activity: 72%
[3]
  residual activity: 102%
[4]
  residual activity: 95%
[5]
  residual activity: 103%
[6]
  residual activity: 88.6%
[7]
  residual activity: 97.3%
[8]
  residual activity: 91%
[9]
  residual activity: 87.8%
[10]
  residual activity: 89.8%
[11]
  residual activity: 101%
[12]
  residual activity: 98.6%
[13]
  residual activity: 26.4%
[14]
  residual activity: 99.7%
[15]
  residual activity: 92%
[16]
  residual activity: 107%
[17]
  residual activity: 87.7%
[18]
  residual activity: 102%
[19]
  residual activity: 53.4%
[20]
  residual activity: 58.8%
[21]
  residual activity: 99.8%
[22]
  residual activity: 42.9%
[23]
  residual activity: 99.8%
[24]
  residual activity: 55.8%
[25]
  residual activity: 90.5%
[26]
  residual activity: 91%
[27]
  residual activity: 83.8%
[28]
  residual activity: 90.3%
[29]
  residual activity: 89.5%
[30]
  residual activity: 89.8%
[31]
  residual activity: 85.4%
[32]
  residual activity: 85.3%
[33]
  residual activity: 81.8%
[34]
  residual activity: 94.6%
[35]
  residual activity: 114%
[36]
  residual activity: 96.8%
[37]
  residual activity: 100%
[38]
  residual activity: 97.2%
[39]
  residual activity: 101%
[40]
  residual activity: 73.4%
[41]
  residual activity: 99.4%
[42]
  residual activity: 101%

## O=C1c2ccccc2-c2nc3nnnn3nc21
[1]
  residual activity: 79.4%
[2]
  residual activity: 89.1%
[3]
  residual activity: 91.4%
[4]
  residual activity: 87%
[5]
  residual activity: 87.5%
[6]
  residual activity: 97.1%
[7]
  residual activity: 90.8%
[8]
  residual activity: 33.9%
[9]
  residual activity: 64.5%
[10]
  residual activity: 108%
[11]
  residual activity: 93.4%
[12]
  residual activity: 83.4%
[13]
  residual activity: 91.2%
[14]
  residual activity: 90.2%
[15]
  residual activity: 85.7%
[16]
  residual activity: 78.3%
[17]
  residual activity: 69.8%
[18]
  residual activity: 28.6%
[19]
  residual activity: 63.3%
[20]
  residual activity: 11.3%
[21]
  residual activity: 79.7%
[22]
  residual activity: 101%
[23]
  residual activity: 94.6%
[24]
  residual activity: 26.7%
[25]
  residual activity: 94.8%
[26]
  residual activity: 107%
[27]
  residual activity: 87.6%
[28]
  residual activity: 55.8%
[29]
  residual activity: 89.2%
[30]
  residual activity: 75%
[31]
  residual activity: 93.4%
[32]
  residual activity: 81.9%
[33]
  residual activity: 112%
[34]
  residual activity: 81.6%
[35]
  residual activity: 105%
[36]
  residual activity: 82.2%
[37]
  residual activity: 92.8%
[38]
  residual activity: 99.3%
[39]
  residual activity: 94.1%
[40]
  residual activity: 3.06%
[41]
  residual activity: 51.9%
[42]
  residual activity: 106%
